Measurements from patent US11713309B2, “Solid forms of Cerdulatinib” (Alexion Pharmaceuticals, Inc., priority 2018, dated 2023).
Where a name gives a salt, the structure may show the parent alone.

What was measured:
Format in all cases: physicochemical
[1] = Kinetic solubility in FaSSIF; details: listed as HC1 salt Form I
Experimental: Kinetic solubility testing was conducted as follows: About 40-55 mg material was weighed into a 5-mL EP pipe. 4 mL of water/bio-relevant media (SGF, FaSSIF, or FeSSIF) was added into the corresponding sample pipe (drug loading: ˜10 mg/mL calculated as freebase). The pipes were capped tightly and the material was verified to be in contact with the media. The sample vials were placed on a roller and start rolling at 37° C. (rate: 25 r/min). Samples were taken at 1, 2, 4, 24 h. For each time point, 1.0 mL of suspension was transferred into a 2-mL centrifuge tube and the samples were centrifuged. The supernatant was filtered via 0.45 μm PTFE membrane and solubility and pH were measured. An XRPD test on residual solids was conducted.

[2] = Approximate kinetic solubility in pharmaceutical co-solvents; details: aqueous with cosolvent or surfactant or cyclodextrin, thermodynamic from solid, no-pH adjustment
Source text: A summary of the approximate kinetic solubility of Compound I HCl Form I in organic solvents, simulated biological fluids, and common pharmaceutical co-solvents is provided in Tables 8-10, respectively.

[3] = Further solubility testing of Compound I HCl Form I in solvents
[4] = Storage under vacuum at 40° C. and at 60° C.; details: 4 days, initial HPLC purity 99.3%
Experimental: Storage under vacuum at 40° C. and at 60° C.: Compound I HCl Form I was stored under vacuum at 40° C. and at 60° C. Initial HPLC purity was 99.3%.

[5] = Gravimetric vapor sorption (GVS) hygroscopicity; details: for GVS weight gain / total weight uptake: at/after about 70% RH, 25° C.
Experimental: Sorption isotherms were obtained using a Hiden Isochema moisture sorption analyser (model IGAsorp), controlled by IGAsorp Systems Software v6.50.48. The sample was maintained at a constant temperature (25° C.) by the instrument controls. The humidity was controlled by mixing streams of dry and wet nitrogen, with a total flow of 250 mL·min^−1. The instrument was verified for relative humidity content by measuring three calibrated Rotronic salt solutions (10-50-88%). The weight change of the sample was monitored as a function of humidity by a microbalance (accuracy+/−0.005 mg). A defined amount of sample was placed in a tared mesh stainless steel basket under ambient conditions. A full experimental cycle consisted of two scans (sorption and desorption) at a constant temperature (25° C.) and 10% RH intervals over a 10-90% range (90 minutes for each humidity level).
The hygroscopicity of the esylate, mesylate, HCl, and sulfate salts/co-crystals of Compound I formed via the first scale up process was analyzed. All hygroscopicity experiments covered a wide range of humidity (0 to about 90% relative humidity) and were performed at about 25° C. to assess behavior.

[6] = 2% Captisol in aqueous solution
[7] = 5% Captisol in aqueous solution
[8] = 5% Pharmasolve in aqueous solution
[9] = 5% Poloxamer F68 in aqueous solution
[10] = 10% Captisol in aqueous solution
[11] = 10% HP-β-CD in aqueous solution
[12] = 10% Labrasol in aqueous solution
[13] = 10% Pharmasolve in aqueous solution
[14] = 10% Poloxamer F68 in aqueous solution
[15] = 20% HP-β-CD in aqueous solution
[16] = 20% Labrasol in aqueous solution
[17] = 30% HP-β-CD in aqueous solution
[18] = 35% Labrasol in aqueous solution
[19] = 40% Captisol in aqueous solution
[20] = 40% HP-β-CD in aqueous solution
[21] = 50% Labrasol in aqueous solution

Solubility (mg/mL) 1 h ([1]; FaSSIF, 37° C., 1 h, drug loading ~10 mg/mL as freebase): 0.012 mg/mL
Solubility (mg/mL) 2 h ([1]; FaSSIF, 37° C., 2 h): 0.013 mg/mL
Solubility (mg/mL) 4 h ([1]; FaSSIF, 37° C., 4 h): 0.013 mg/mL
Solubility (mg/mL) 24 h ([1]; FaSSIF, 37° C., 24 h): 0.011 mg/mL
pH 1 h ([1]; supernatant, FaSSIF (native pH 6.5), 1 h): 5.4
pH 2 h ([1]; supernatant, FaSSIF (native pH 6.5), 2 h): 5.1
pH 4 h ([1]; supernatant, FaSSIF (native pH 6.5), 4 h): 5.2
pH 24 h ([1]; supernatant, FaSSIF (native pH 6.5), 24 h): 4.6
solubility kinetic at 2 h [2, 6]: 2040 µg/mL
solubility kinetic at 24 h [2, 6]: 2510 µg/mL
solubility kinetic at 7 days [2, 6]: 2540 µg/mL
solubility kinetic at 2 h ([2]; 3% HP-β-CD in aqueous solution): 990 µg/mL
solubility kinetic at 24 h ([2]; 3% HP-β-CD in aqueous solution): 1120 µg/mL
solubility kinetic at 7 days ([2]; 3% HP-β-CD in aqueous solution): 1020 µg/mL
solubility kinetic at 2 h ([2]; 3% TPGS in aqueous solution): 1060 µg/mL
solubility kinetic at 24 h ([2]; 3% TPGS in aqueous solution): 640 µg/mL
solubility kinetic at 7 days ([2]; 3% TPGS in aqueous solution): 540 µg/mL
solubility kinetic at 2 h [2, 7]: 3010 µg/mL
solubility kinetic at 24 h [2, 7]: 3610 µg/mL
solubility kinetic at 7 days [2, 7]: 3750 µg/mL
solubility kinetic at 2 h ([2]; 5% HP-β-CD in aqueous solution): 1450 µg/mL
solubility kinetic at 24 h ([2]; 5% HP-β-CD in aqueous solution): 1390 µg/mL
solubility kinetic at 7 days ([2]; 5% HP-β-CD in aqueous solution): 1590 µg/mL
solubility kinetic at 2 h [2, 8]: 430 µg/mL
solubility kinetic at 24 h [2, 8]: 690 µg/mL
solubility kinetic at 2 h [2, 9]: 230 µg/mL
solubility kinetic at 24 h [2, 9]: 180 µg/mL
solubility kinetic at 2 h ([2]; 5% TPGS in aqueous solution): 1610 µg/mL
solubility kinetic at 24 h ([2]; 5% TPGS in aqueous solution): 1530 µg/mL
solubility kinetic at 7 days ([2]; 5% TPGS in aqueous solution): 1320 µg/mL
solubility kinetic at 2 h [2, 10]: 3040 µg/mL
solubility kinetic at 24 h [2, 10]: 3410 µg/mL
solubility kinetic at 7 days [2, 10]: 3670 µg/mL
solubility kinetic at 2 h [2, 11]: 1880 µg/mL
solubility kinetic at 24 h [2, 11]: 2030 µg/mL
solubility kinetic at 7 days [2, 11]: 1930 µg/mL
solubility kinetic at 2 h [2, 12]: 1150 µg/mL
solubility kinetic at 24 h [2, 12]: 820 µg/mL
solubility kinetic at 7 days [2, 12]: 700 µg/mL
solubility kinetic at 2 h [2, 13]: 700 µg/mL
solubility kinetic at 24 h [2, 13]: 570 µg/mL
solubility kinetic at 2 h [2, 14]: 260 µg/mL
solubility kinetic at 24 h [2, 14]: 210 µg/mL
solubility kinetic at 2 h ([2]; 10% TPGS in aqueous solution): 1800 µg/mL
solubility kinetic at 24 h ([2]; 10% TPGS in aqueous solution): 1930 µg/mL
solubility kinetic at 7 days ([2]; 10% TPGS in aqueous solution): 1720 µg/mL
solubility kinetic at 2 h [2, 15]: 2630 µg/mL
solubility kinetic at 24 h [2, 15]: 2810 µg/mL
solubility kinetic at 7 days [2, 15]: 2650 µg/mL
solubility kinetic at 2 h [2, 16]: 1840 µg/mL
solubility kinetic at 24 h [2, 16]: 1850 µg/mL
solubility kinetic at 7 days [2, 16]: 1710 µg/mL
solubility kinetic at 2 h ([2]; 20% PEG in aqueous solution): 270 µg/mL
solubility kinetic at 24 h ([2]; 20% PEG in aqueous solution): 370 µg/mL
solubility kinetic at 2 h ([2]; 20% TPGS in aqueous solution): 2450 µg/mL
solubility kinetic at 24 h ([2]; 20% TPGS in aqueous solution): 2420 µg/mL
solubility kinetic at 7 days ([2]; 20% TPGS in aqueous solution): 2620 µg/mL
solubility kinetic at 2 h [2, 17]: 2980 µg/mL
solubility kinetic at 24 h [2, 17]: 2940 µg/mL
solubility kinetic at 2 h ([2]; 30% PEG in aqueous solution): 420 µg/mL
solubility kinetic at 24 h ([2]; 30% PEG in aqueous solution): 450 µg/mL
solubility kinetic at 7 days ([2]; 30% PEG in aqueous solution): 410 µg/mL
solubility kinetic at 2 h [2, 18]: 1900 µg/mL
solubility kinetic at 24 h [2, 18]: 2010 µg/mL
solubility kinetic at 7 days [2, 18]: 1800 µg/mL
solubility kinetic at 2 h [2, 19]: 4250 µg/mL
solubility kinetic at 24 h [2, 19]: 4400 µg/mL
solubility kinetic at 7 days [2, 19]: 4330 µg/mL
solubility kinetic at 2 h [2, 20]: 3860 µg/mL
solubility kinetic at 24 h [2, 20]: 3840 µg/mL
solubility kinetic at 7 days [2, 20]: 4120 µg/mL
solubility kinetic at 2 h [2, 21]: 2050 µg/mL
solubility kinetic at 24 h [2, 21]: 2650 µg/mL
solubility kinetic at 7 days [2, 21]: 2200 µg/mL
solubility kinetic at 2 h ([2]; 50% PEG in aqueous solution): 2170 µg/mL
solubility kinetic at 24 h ([2]; 50% PEG in aqueous solution): 870 µg/mL
solubility kinetic at 7 days ([2]; 50% PEG in aqueous solution): 690 µg/mL
solubility ([3]; 1,4-dioxane, organic solvent or mixture): < 2100 µg/mL
solubility ([3]; 2-MeTHF, organic solvent or mixture): < 2100 µg/mL
solubility ([3]; ACN, organic solvent or mixture): < 2200 µg/mL
solubility ([3]; ACN/H2O, 4:1 (v/v), organic solvent or mixture): 2900 to 3800 µg/mL
solubility ([3]; Acetone/H2O, 4:1 (v/v), organic solvent or mixture): < 1900 µg/mL
solubility ([3]; CHCl3, organic solvent or mixture): < 2300 µg/mL
solubility ([3]; CPME, organic solvent or mixture): < 2000 µg/mL
solubility ([3]; DCM, organic solvent or mixture): < 2100 µg/mL
solubility ([3]; DMSO, organic solvent or mixture): > 36000 µg/mL
solubility ([3]; EtOAc, organic solvent or mixture): < 2000 µg/mL
solubility ([3]; EtOH, organic solvent or mixture): < 2200 µg/mL
solubility ([3]; EtOH/H2O, 4:1 (v/v), organic solvent or mixture): < 2000 µg/mL
solubility ([3]; IPA, organic solvent or mixture): < 1900 µg/mL
solubility ([3]; IPAc, organic solvent or mixture): < 2300 µg/mL
solubility ([3]; MIBK, organic solvent or mixture): < 2300 µg/mL
solubility ([3]; MTBE, organic solvent or mixture): < 2000 µg/mL
solubility ([3]; MeOH, organic solvent or mixture): 1900 to 6300 µg/mL
solubility ([3]; MeOH/DCM, 1:1 (v/v), organic solvent or mixture): 6800 to 12500 µg/mL
solubility ([3]; MeOH/H2O, 4:1 (v/v), organic solvent or mixture): < 2000 µg/mL
solubility ([3]; NMP, organic solvent or mixture): 4000 to 6700 µg/mL
solubility ([3]; THF, organic solvent or mixture): < 1900 µg/mL
solubility ([3]; THF/H2O, 4:1 (v/v), organic solvent or mixture): 2000 to 2500 µg/mL
solubility ([3]; acetone, organic solvent or mixture): < 2200 µg/mL
solubility ([3]; anisole, organic solvent or mixture): < 2300 µg/mL
solubility ([3]; n-heptane, organic solvent or mixture): < 1900 µg/mL
solubility ([3]; toluene, organic solvent or mixture): < 2100 µg/mL
GVS weight gain / total weight uptake [5]: about 5.9%
GVS weight gain / total weight uptake ([5]; listed as Comp. I HCl (aq., 1:2) Form I): About 5.9%
Crystalline form by XRPD post GVS analysis ([5]; exposure to humidity 0 to about 90% RH, about 25° C.): does not result in a form change
GVS mass lost ([5]; kept under about 100% dry atmosphere): about 0.5%
GVS weight variation ([5]; up to about 70% RH): does not vary significantly
Compound: CCS(=O)(=O)N1CCN(c2ccc(Nc3ncc(C(N)=O)c(NC4CC4)n3)cc2)CC1 [Compound I HCl Form I, 4-(cyclopropylamino)-2-(4-(4-(ethylsulfonyl)piperazin-1-yl)phenylamino)pyrimidine-5-carboxamide]
Form change / HPLC purity on storage under vacuum ([4]; 40° C.): No form change or decrease in purity by HPLC
Form change / HPLC purity on storage under vacuum ([4]; 60° C.): No form change or decrease in purity by HPLC
